Measurements reported in EP0381422B1, “Tetrahydrobenzimidazole derivatives” (YAMANOUCHI PHARMACEUTICAL CO. LTD., priority 1989, dated 1990).

Tested on: 5-HT3 receptor
Assay: Antagonism against 5-HT3-receptor: inhibition of serotonin-induced Bezold-Jarish (BJ) reflex in anesthetized rats
Type: in vivo, Wistar male rats
Experimental: Antagonism Against 5-HT3-Receptor
Nine-week-old Wistar male rats were anesthetized by intravenous injection of 1 g/kg of urethane, and blood pressure and heart rate were measured under artificial respiration. Transient reduction in heart rate and blood pressure induced by intravenous administration of serotonin or 2-methylserotonin which is a selective agonist of 5-HT3 was taken as an index of the reaction via 5-HT3 receptor [Bezold-Jarish reflex; Paintal, A.S., Pysiolo. Rev., Vol. 53, p.
Inhibitory activity of compounds of the present invention on serotonin-induced Bezold-Jarish (BJ) reflex in rats is shown in Table 1.

SMILES: O=C(C1CCc2nc[nH]c2C1)N1CCc2ccccc21.O=C(O)/C=C/C(=O)O (centres unmarked) [Example 2, 5-[(2,3-Dihydroindol-1-yl)carbonyl]-4,5,6,7-tetrahydrobenzimidazole fumarate]
- BJ Reflex Inhibitory Activity (ED50; µg/kg, i.v.): 0.29 µg/kg

SMILES: O=C(C1CCc2nc[nH]c2C1)n1c(=O)[nH]c2ccccc21 (centres unmarked) [Example 9, 1-[(4,5,6,7-tetrahydrobenzimidazol-5-yl)carbonyl]-2,3-dihydrobenzimidazol-2-one]
- BJ Reflex Inhibitory Activity (ED50; µg/kg, i.v.): 0.80 µg/kg
